One compound from patent US9493466B2, “Treatment of cancer with TOR kinase inhibitors” (Signal Pharmaceuticals, LLC, priority 2011, dated 2016) can be followed below.

The test system of assay [1] is HCC. Put plainly: Phase 1/2 study Part B: tumor response, HCC. The class given is in vivo, human. The following applies: 14 evaluable patients. The source says:
In Part B, subjects may start Compound 1 at the MTD and/or a lower dose level based on safety, PK and PD data from Part A. Approximately 150 subjects will be treated and evaluated for safety and preliminary antitumor activity after every two cycles of therapy. Tumor types include non-small cell lung cancer (NSCLC), glioblastoma multiforme (GBM), hepatocellular carcinoma (HCC), gastrointestinal neuroendocrine tumor of non-pancreatic origin (NET), diffuse large B-cell lymphoma (DLBCL), multiple myeloma (MM), and hormone receptor positive breast cancer (HRPBC). Up to 20 subjects will be enrolled in each tumor type.
Subjects will be evaluated for efficacy every 2 cycles through cycle 6 and every 3 cycles thereafter. The primary efficacy variable is response. Tumor assessments, including imaging (CT, MRI and/or PET) of the chest and abdomen and other sites as appropriate, will be performed during Screening. Subjects with brain lesions will also have brain scans at Screening and during follow-up tumor assessments. After Screening, tumor assessments (for all tumors except multiple myeloma) will be performed on completion of Cycles 2, 4 and 6 (i.e., on Cycles 3, 5 and 7/Day 1±7 days) and then every 3 months thereafter (e.g., Cycle 10 and 13/Day 1±7 days). Tumor assessment (for multiple myeloma and only NHL/DLBCL with known or suspected marrow involvement) (bone marrow aspiration and biopsy, with PD biomarker analysis, cytogenetic analysis if abnormally present at Screening) will be performed on completion of Cycles 4, 8, 12 and 16 only (i.e., on Cycles 5, 9, 13 and 17/Day 1±7 days). Cytogenetics need not be repeated if normal at Screening. […] Subjects will be evaluated for tumor response on completion of Cycle 2, 4, 6, and so on. […]
For Part B, efficacy variables to be analyzed include tumor response at the end of treatment, the proportion of subject alive and progression-free, and duration of response. […]

The subject of assay [2] is OCI-LY-7. As to the kind of experiment: Growth inhibition assay for NHL lines. The class given is cell-based. The following applies: OCI-LY-7, NHL DLBCL, 96 hours, n ≧ 3. The protocol:
(§1) Growth Inhibition Assay for HCC and NHL Lines. The seeding density for each cell line was optimized to ensure assay linearity in 384-well plates.
(§2) Compound 1 was dissolved in dimethyl sulfoxide (DMSO) to prepare a 10 mM stock solution. A serial titration was performed to produce a working concentration range of […] to 10 mM. Aliquots to produce final concentrations of 1.5 nM to 10 μM were spotted via an acoustic dispenser (EDC ATS-100) into an empty 384-well plate. Compound 1 was spotted in a 10-point serial dilution fashion (3-fold dilution) in duplicate within the plate. The DMSO concentration was kept constant for a final assay concentration of 0.1% DMSO. Plates were replicated for use with different cell lines and testing periods. After compound plate replication, all plates were sealed (Agilent ThermoLoc) and stored at −20° C. for up to 1 month. […] When ready for testing, plates were removed from the freezer, thawed, and unsealed just prior to the addition of the test cells. Prior to testing, cells were grown and expanded in culture flasks to provide sufficient amounts of starting material. Cells were then diluted to the appropriate densities and added directly to the compound-spotted 384-well plates. Cells were allowed to grow for 96 hours at 37° C./5% CO2. At the time when compound was added (t0), initial cell number was assessed via a viability assay (Cell Titer-Glo) by quantifying the level of luminescence generated by ATP present in viable cells. After 96 hours, cell viability of compound-treated cells was assessed via Cell Titer-Glo and luminescence measurement. Cell lines were assayed for growth inhibition by Compound 1 in at least 3 independent tests. A control cell line (the lung tumor cell line, A549) was included in each of the assays. The compound response against this control cell line was monitored closely to enable comparison of the data generated through the assay period. All data were normalized and presented as a percentage of the DMSO-treated cells. Results were then expressed as a GI50 value. The GI50 value corrects for the cell count at time zero. In addition, the IC50 value of Compound 1 for each cell line was calculated.

Assay [3] relates to RC-K8. Put plainly: Growth inhibition assay for NHL lines. Conditions: RC-K8, NHL DLBCL, 96 hours, n ≧ 3. Type of assay: cell-based. The protocol:
as §1, §2

Assay [4] concerns SU-DHL-1. As to the kind of experiment: Growth inhibition assay for NHL lines. The class given is cell-based. The following applies: SU-DHL-1, ALCL T-cell, 96 hours, n ≧ 3. As for the experimental part:
as §1, §2

The test system of assay [5] is SU-DHL-6. Put plainly: Growth inhibition assay for NHL lines. The class given is cell-based. Conditions: SU-DHL-6, NHL DLBCL, 96 hours, n ≧ 3. As for the experimental part: as §1, §2
Assay [6] concerns SC-1. Put plainly: Growth inhibition assay for NHL lines. The class given is cell-based. Conditions: SC-1, NHL FL, 96 hours, n ≧ 3. As for the experimental part: as §1, §2
Assay [7] deals with KARPAS-1106P. Put plainly: Growth inhibition assay for NHL lines. The class given is cell-based. Conditions: NHL DLBCL, 96 hours, n ≧ 3. The protocol: as §1, §2

What is called GI50 is the concentration giving 50% growth inhibition. The IC50 is the concentration that gives 50% inhibition. In the case of `CO[C@H]1CC[C@H](N2C(=O)CNc3ncc(-c4ccc(C(C)(C)O)nc4)nc32)CC1` [Compound 1, 7-(6-(2-hydroxypropan-2-yl)pyridin-3-yl)-1-((1r,4r)-4-methoxycyclohexyl)-3,4-dihydropyrazino-[2,3-b]pyrazin-2(1H)-one], the “best target lesions responses (reduction)” value in assay [1] is “up to 47%”. Besides, the “patients meeting Partial Response (RECIST 1.1)” value in assay [1] worked out at 2 patients. Further, in assay [1], the “patients meeting at least Stable Disease (RECIST 1.1)” value is reported as 5 patients. The GI50 in assay [2] came to 0.19 ± 0.03 µM; in assay [3], 0.08 ± 0.01 µM; in assay [4] it was 0.32 ± 0.02 µM; in assay [5] it was 0.16 ± 0.04 µM; in assay [6], 0.18 ± 0.01 µM; in assay [7], 0.07 ± 0.03 µM. The half-inhibitory concentration (IC50) in assay [2] was 0.25 ± 0.03 µM; in assay [3] it was 0.15 ± 0.03 µM; in assay [4], 0.39 ± 0.03 µM; in assay [5], 0.2 ± 0.06 µM; in assay [6] it was 0.2 ± 0.01 µM; in assay [7], 0.07 ± 0.03 µM.
